ChEMBL document CHEMBL5126609, “Design, Synthesis, and Pharmacological Evaluation of Benzimidazolo-thiazoles as Potent CXCR3 Antagonists with Therapeutic Potential in Autoimmune Diseases: Discovery of ACT-672125” (J Med Chem, 2022)

Columns and labels:
[1] = Unbound fraction in dog liver; format: ADME, tissue-based, Canis lupus familiaris
Hepatocyte = experiment: Cytotoxicity in human hepatocyte measured up to 100 uM; format: toxicity, cell-based; details: hepatocytes
[2] = Half life in Wistar rat at 0.5 mg/kg, iv; details: in vivo
in vitro [3] = details: rat, liver microsomes
[4] = Mutagenicity in Salmonella typhimurium by Ames test; format: toxicity; details: salmonella enterica subsp. enterica serovar typhimurium
[5] = biological target: 5-hydroxytryptamine receptor 2A (Homo sapiens, UniProt P28223); experiment: Antagonist activity at 5-HT2A receptor (unknown origin)
[6] = Toxicity in rat plasma assessed as increase in indirect bilirubin level at 300 mg/kg/day measured for 2 weeks; format: organism-based; details: in vivo, 336 h
[7] = Volume of distribution at steady state in Wistar rat at 2 mg/kg, po; details: in vivo
[8] = Unbound fraction in rat plasma by equilibrium based LC-MS/MS analysis
[9] = Unbound fraction in mouse plasma by equilibrium based LC-MS/MS analysis
[10] = biological target: T1, C-X-C chemokine receptor type 3 (Homo sapiens, UniProt P49682); experiment: Antagonist activity at human recombinant CXCR3 expressed in CHO-K1 cells measured after 10 mins in presence of CXCL10 by FLIPR analysis
T1 sequence (P49682 whole entry): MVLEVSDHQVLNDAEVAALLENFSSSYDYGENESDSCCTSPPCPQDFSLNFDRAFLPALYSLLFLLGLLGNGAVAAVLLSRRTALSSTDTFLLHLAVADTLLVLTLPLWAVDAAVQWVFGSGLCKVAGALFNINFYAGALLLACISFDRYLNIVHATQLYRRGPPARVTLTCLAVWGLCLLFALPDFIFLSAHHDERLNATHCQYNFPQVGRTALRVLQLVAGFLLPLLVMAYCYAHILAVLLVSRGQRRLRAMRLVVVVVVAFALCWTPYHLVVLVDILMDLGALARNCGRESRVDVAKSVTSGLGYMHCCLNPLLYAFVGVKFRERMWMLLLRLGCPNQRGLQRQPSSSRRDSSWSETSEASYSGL

[11] = biological target: cGMP-specific 3',5'-cyclic phosphodiesterase (Homo sapiens, UniProt O76074); experiment: Antagonist activity at PDE5 (unknown origin)
[12] = Drug concentration in LPS-induced C57BL/6 mouse plasma at 200 mg/kg, po bid; format: ADME, organism-based; details: in vivo
[13] = Unbound fraction in rat liver; format: ADME, tissue-based
in vitro [14] = details: human, liver microsomes
in vitro [15] = details: mouse, liver microsomes
[16] = Toxicity in […] assessed as histopathological changes in liver at 300 mg/kg/day measured for 2 weeks; format: organism-based; details: in vivo, 336 h
[17] = Volume of distribution in dog; format: ADME, Canis lupus familiaris; details: in vivo
[18] = Toxicity in cynomolgus monkey assessed as increase in direct bilirubin level at 300 mg/kg/day measured for 7 days; format: organism-based, Macaca fascicularis; details: in vivo, time 7 day
[19] = Oral bioavailability in dog; format: ADME, organism-based, Canis lupus familiaris; details: in vivo
in vivo [20] = details: Balb/c, mouse, po, 10 mg/kg
[21] = Unbound fraction in human liver; format: ADME, tissue-based
[22] = Drug concentration in LPS-induced C57BL/6 mouse plasma at 30 mg/kg, po bid; format: ADME, organism-based; details: in vivo
[23] = Drug concentration in LPS-induced C57BL/6 mouse plasma at 100 mg/kg, po bid; format: ADME, organism-based; details: in vivo
[24] = Clearance in rat relative to liver blood flow; format: ADME; details: in vivo
[25] = Toxicity in cynomolgus monkey assessed as increase in total bilirubin level at 300 mg/kg/day measured for 7 days; format: organism-based, Macaca fascicularis; details: in vivo, time 7 day
[26] = biological target: T1, C-X-C chemokine receptor type 3; experiment: Antagonist activity at human recombinant CXCR3 in human venous blood assessed as receptor internalization measured for 30 mins in presence of CXCL10 by flow cytometric analysis
[27] = Toxicity in cynomolgus monkey assessed as increase in indirect bilirubin level at 300 mg/kg/day measured for 7 days; format: organism-based, Macaca fascicularis; details: in vivo, time 7 day
[28] = Clearance in Wistar rat at 2 mg/kg, po; details: in vivo
in vivo [29] = details: Balb/c, mouse, po, 10 mg/kg; remark: listed apart in the source
[30] = Cmax in rat plasma at 300 mg/kg/day measured on day 14; format: ADME, organism-based; set-up: dose 300 mg/kg/day
[31] = Clearance in dog relative to liver blood flow; format: ADME, Canis lupus familiaris; details: in vivo
[32] = Toxicity in rat plasma assessed as increase in total bilirubin level at 300 mg/kg/day measured for 2 weeks; format: organism-based; details: in vivo, 336 h
[33] = Volume of distribution in rat; format: ADME; details: in vivo
[34] = Toxicity in rat plasma assessed as increase in direct bilirubin level at 300 mg/kg/day measured for 2 weeks; format: organism-based; details: in vivo, 336 h
in vivo [35] = details: Wistar, rat, po, 2 mg/kg
in vivo [36] = details: Balb/c, mouse, po, 10 mg/kg; remark: listed apart in the source
in vivo [37] = details: Wistar, rat, po, 2 mg/kg; remark: listed apart in the source
in vivo [38] = details: Wistar, rat, po, 2 mg/kg; remark: listed apart in the source
[39] = Free maximum concentration of drug in cynomolgus monkey at 300 mg/kg/day measured on day 7; format: ADME, organism-based, Macaca fascicularis; details: in vivo
[40] = Cardiotoxicity in guinea pig assessed as QTc prolongation at 10 mg/kg, iv measured for 20 mins; format: toxicity, organism-based, Cavia porcellus; details: in vivo
[41] = Oral bioavailability in rat; format: ADME, organism-based; details: in vivo

Sequence of 5-hydroxytryptamine receptor 2A (P28223 whole entry): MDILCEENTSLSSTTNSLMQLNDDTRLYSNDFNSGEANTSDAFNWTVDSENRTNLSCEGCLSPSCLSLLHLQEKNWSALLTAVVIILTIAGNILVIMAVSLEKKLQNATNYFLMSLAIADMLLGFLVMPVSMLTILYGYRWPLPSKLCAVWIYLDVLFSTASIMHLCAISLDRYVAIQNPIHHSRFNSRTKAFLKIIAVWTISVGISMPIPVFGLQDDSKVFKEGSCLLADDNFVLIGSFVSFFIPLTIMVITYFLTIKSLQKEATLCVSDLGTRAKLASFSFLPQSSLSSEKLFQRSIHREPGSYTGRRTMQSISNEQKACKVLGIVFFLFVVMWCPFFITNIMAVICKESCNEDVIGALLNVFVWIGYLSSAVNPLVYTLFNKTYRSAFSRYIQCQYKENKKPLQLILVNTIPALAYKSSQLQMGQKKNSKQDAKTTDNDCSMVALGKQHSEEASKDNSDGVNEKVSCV

SMILES: Cc1nc(C)n(CC(=O)N2CCN(c3sc(C(F)(F)F)nc3-c3nc4ccc(-c5noc(C)n5)cc4[nH]3)C[C@H]2C)n1
- fraction unbound [1]: 0.106
- Activity (Hepatocyte): Non-Toxic
- half-life [2]: 72 min
- microsomal CLint at 0.25 h, 1 µM (in vitro [3]): 47 µL/min/mg
- Activity [4]: Non-Toxic
- IC50 [5]: 16 µM
- Activity [6]: Toxic
- Vdss [7]: 1 L/kg
- fraction unbound [8]: 0.029
- fraction unbound [9]: 0.024
- IC50 [10]: 0.0025 µM
- IC50 [11]: 8.7 µM
- Cp [12]: 14630 ng/mL
- fraction unbound [13]: 0.029
- microsomal CLint at 0.25 h, 1 µM (in vitro [14]): < 10 µL/min/mg
- microsomal CLint at 0.25 h, 1 µM (in vitro [15]): 21 µL/min/mg
- Activity [16]: Non-Toxic
- Vd [17]: 2.2 L/kg
- Activity [18]: Toxic
- bioavailability [19]: 57%
- Cmax (in vivo [20]): 3140 ng/mL
- fraction unbound [21]: 0.038
- Cp [22]: 30 ng/mL
- Cp [23]: 250 ng/mL
- CLH [24]: 10%
- Activity [25]: Toxic
- IC50 [26]: 0.239 µM
- Activity [27]: Toxic
- CL/F [28]: 14 mL/min/kg
- Tmax (in vivo [29]): 15 min
- Cmax [30]: 3.5 µM
- CLH [31]: 11%
- Activity [32]: Toxic
- Vd [33]: 1.1 L/kg
- Activity [34]: Toxic
- Tmax (in vivo [35]): 15 min
- AUC (in vivo [36]): 6600 ng·h/mL
- AUC (in vivo [37]): 1160 ng·h/mL
- bioavailability (in vivo [38]): 0.5%
- fCmax [39]: 1.4 µM
- Activity [40]: Non-Toxic
- bioavailability [41]: 48%
